“And” between values parts separate entries of the source, which are not always exact repeats. Equal values may be shown once. Read-outs that look alike come from different tables or passages of the source.
System: BL21(DE3) E. coli transformed with pUCP18 vector expressing untagged AAC(3)-XIa
Type: cell-based
Method: Ten milliliters of LB containing […] ampicillin were inoculated from glycerol stocks of transformed BL21(DE3) E. coli containing genes expressing the proteins of interest in pUCP18 vectors. These cultures were incubated at 37 °C with 200 rpm agitation for 16 h. Turbidity was measured through OD600 with a NanoDrop OneC Spectrometer (Thermo Scientific). From the initial cultures, secondary 10 mL cultures were prepared with OD600 values of 0.1. These cultures were grown until OD600 values of 0.4–0.6 were reached and diluted to bring all cultures to the same OD600. Cultures were induced with 1 mM Isopropyl β-D-1-thiogalactopyranoside and incubated for 4 h. Two microliters of culture was added to 198 μL of LB with an appropriate aminoglycoside titration concentration. Each titration point was repeated n = 4 times. The formulated 96-well culture plate (Sarstedt) had OD600 measured on a 20-min interval over 17 h using a BioTek Cytation 5 Cell Imaging Multimode Reader, incubating at 37 °C with 282 cpm orbital agitation. Experiments were repeated with fresh cultures on separate days to ensure consistent trends. Data was analyzed in Microsoft Excel and GraphPad5. The remainder of the culture immediately had its RNA isolated for qPCR experiments.

CN[C@@H]1[C@@H](O)[C@@H](O[C@@H]2[C@@H](O)[C@H](O[C@H]3OC(CN)=CC[C@H]3N)[C@@H](N)C[C@H]2N)OC[C@]1(C)O [Sisomicin, sisomicin]
OD600 growth curve (3 ug/mL Sisomicin, time point 12:39:10): 0.741 and 0.631 and 0.615 and 0.786 | OD600 growth curve (3 ug/mL Sisomicin, time point 12:59:10): 0.747 and 0.634 and 0.621 and 0.795 | OD600 growth curve (3 ug/mL Sisomicin, time point 13:19:10): 0.745 and 0.632 and 0.619 and 0.794 | OD600 growth curve (3 ug/mL Sisomicin, time point 13:39:10): 0.742 and 0.632 and 0.619 and 0.79 | OD600 growth curve (3 ug/mL Sisomicin, time point 13:59:10): 0.738 and 0.632 and 0.618 and 0.787 | OD600 growth curve (3 ug/mL Sisomicin, time point 14:19:10): 0.744 and 0.634 and 0.623 and 0.797 | OD600 growth curve (3 ug/mL Sisomicin, time point 14:39:10): 0.747 and 0.635 and 0.625 and 0.799 | OD600 growth curve (3 ug/mL Sisomicin, time point 14:59:10): 0.745 and 0.635 and 0.627 and 0.795 | OD600 growth curve (6 ug/mL Sisomicin, time point 12:39:10): 0.62 and 0.602 and 0.749 and 0.849 | OD600 growth curve (6 ug/mL Sisomicin, time point 12:59:10): 0.627 and 0.606 and 0.748 and 0.838 | OD600 growth curve (6 ug/mL Sisomicin, time point 13:19:10): 0.634 and 0.612 and 0.751 and 0.829 | OD600 growth curve (6 ug/mL Sisomicin, time point 13:39:10): 0.639 and 0.613 and 0.744 and 0.819 | OD600 growth curve (6 ug/mL Sisomicin, time point 13:59:10): 0.641 and 0.612 and 0.741 and 0.805 | OD600 growth curve (6 ug/mL Sisomicin, time point 14:19:10): 0.645 and 0.615 and 0.738 and 0.792 | OD600 growth curve (6 ug/mL Sisomicin, time point 14:39:10): 0.654 and 0.626 and 0.749 and 0.784 | OD600 growth curve (6 ug/mL Sisomicin, time point 14:59:10): 0.663 and 0.629 and 0.759 and 0.771 | OD600 growth curve (6 ug/mL Sisomicin, time point 15:19:10): 0.67 and 0.64 and 0.762 | OD600 growth curve (12 ug/mL Sisomicin, time point 12:39:10): 0.093 and 0.101 and 0.109 and 0.105 | OD600 growth curve (12 ug/mL Sisomicin, time point 12:59:10): 0.093 and 0.101 and 0.109 and 0.105 | OD600 growth curve (12 ug/mL Sisomicin, time point 13:19:10): 0.093 and 0.101 and 0.108 and 0.104 | OD600 growth curve (12 ug/mL Sisomicin, time point 13:39:10): 0.093 and 0.101 and 0.108 and 0.104 | OD600 growth curve (12 ug/mL Sisomicin, time point 13:59:10): 0.093 and 0.1 and 0.108 and 0.104 | OD600 growth curve (12 ug/mL Sisomicin, time point 14:19:10): 0.093 and 0.1 and 0.108 and 0.103 | OD600 growth curve (12 ug/mL Sisomicin, time point 14:39:10): 0.093 and 0.1 and 0.108 and 0.103 | OD600 growth curve (12 ug/mL Sisomicin, time point 14:59:10): 0.093 and 0.1 and 0.107 and 0.103 | OD600 growth curve (12 ug/mL Sisomicin, time point 15:19:10): 0.093 | Growth (OD600 growth curve) (E. coli expressing AAC(3)-XIa, 12 μg mL^−1 antibiotic, 17 h): none of the strains of transformed E. coli were able to grow at all

— paper PMC12378234, “Enzyme-mediated aminoglycoside resistance without target mimicry” (Communications Chemistry, 2025)
